Test: xn = mol fraction of the nth substance listed
Details: 101.3 kPa

CC(=O)[O-].CN1CCCN2CCC[NH+]=C12 + O
viscosity [mPa·s]
Details	x1 = 0.103	x1 = 0.206	x1 = 0.301	x1 = 0.405	x1 = 0.494	x1 = 0.604
278.2 K	46	329	945	–	2689	3358
283.2 K	–	–	554	1023.1	–	1825.2
288.2 K	24.1	131.4	340	609	873	1046.1
293.2 K	18.1	87.9	217.7	–	533	629
298.2 K	13.9	61.2	–	244.9	–	396
303.2 K	10.9	43.9	–	164.9	224.5	–
308.2 K	8.77	–	–	114.8	153.9	176.1
313.2 K	7.19	24.72	–	82.4	–	123.6
318.2 K	5.94	19.23	–	60.6	–	89.4
323.2 K	4.99	15.23	30	45.8	59.3	–
328.2 K	4.24	12.3	23.57	35.39	45.37	50.43
333.2 K	3.65	–	18.81	27.89	35.43	39.17
338.2 K	3.15	8.44	15.29	22.37	–	31.03
343.2 K	–	7.12	12.65	18.24	22.81	25.01
348.2 K	2.45	6.08	10.59	15.11	18.74	20.47
353.2 K	2.19	5.25	–	12.66	15.61	16.99
358.2 K	–	–	7.69	10.74	13.17	–
363.2 K	1.78	4	6.66	9.21	11.24	–
368.2 K	–	3.54	5.83	7.98	9.68	–
373.2 K	–	3.17	–	6.97	8.42	–
